Measured values: patent US9901592B2 (priority 2008, dated 2018)
In brackets after ≈: the same amount, converted by molar mass. Where two headings read alike, the source gives them in different places.

Columns and labels:
S. pyogenes = assay type: cell-based; design: MIC: unit not given beside the values; settings: for MIC50 / MIC90: Streptococcus pyogenes
M. pneumoniae = test: microbe, parasite or virus in culture; assay type: cell-based; settings: Mycoplasmoides pneumoniae
U. parvum = test: MIC testing in 10B broth (colour change); assay type: cell-based, Ureaplasma parvum
N. meningitidis = test: MIC, CLSI broth microdilution, invasive isolates; assay type: cell-based; settings: Neisseria meningitidis; 62 N. meningitidis isolates
Procedure: Example. […] Colonization of the nasopharynx (NP) by NM can lead to invasive meningococcal disease. Chemoprophylaxis is used to eradicate NP colonization and prevent transmission to nonimmune contacts. […] 62 isolates (91.9% blood culture) of NM were collected from 29 medical centers in North and South America and Europe (1997-2008). […] Serological identification was performed for serogroups (SGs) B, C, Y and W135.

S. pneumoniae = test: microbe, parasite or virus in culture; assay type: cell-based; settings: for MIC: Streptococcus pneumoniae
[1] = S. pyogenes TEL R, Macr-R, 10 strains
[2] = S. pyogenes TEL S, Macr-R, 30 strains
[3] = S. pyogenes TEL S, Macr-S, 10 strains

In the case of CC[C@H]1OC(=O)[C@H](C)C(=O)[C@H](C)[C@@H](O[C@@H]2O[C@H](C)C[C@H](N(C)C)[C@H]2O)[C@](C)(OC)C[C@@H](C)C(=O)[C@H](C)[C@H]2N(CCCCn3cnc(-c4cccnc4)c3)C(=O)O[C@]12C [TEL, telithromycin], the MIC (S. pyogenes; MAC-R S. pyogenes 3029) is reported as “(16)”, the MIC50 (S. pyogenes; [1]) is reported as 32 µg/mL (≈ 39.4 µM) and the MIC90 (S. pyogenes; [1]) is reported as 32 µg/mL (≈ 39.4 µM). The MIC50 (S. pyogenes; [2]) was 0.125 µg/mL (≈ 0.154 µM), the MIC90 (S. pyogenes; [2]) was 0.5 µg/mL (≈ 0.616 µM) and the MIC50 (S. pyogenes; [3]) was 0.03 µg/mL (≈ 0.0369 µM). For the same compound, the MIC90 (S. pyogenes; [3]) was 0.03 µg/mL (≈ 0.0369 µM), the MIC50 (M. pneumoniae) was 0.00025 µg/mL (≈ 0.000308 µM) and the MIC90 (M. pneumoniae) was 0.001 µg/mL (≈ 0.00123 µM). The “MIC Range” value (U. parvum; U. parvum (10 isolates)) was 0.008 to 0.063 µg/mL, the MIC50 (U. parvum; Ureaplasma parvum) was 0.063 µg/mL (≈ 0.0776 µM) and the MIC90 (U. parvum; Ureaplasma parvum) was 0.125 µg/mL (≈ 0.154 µM). The MIC (N. meningitidis) was 0.015 to 0.12 µg/mL (≈ 0.0185 to 0.148 µM), the MIC50 (N. meningitidis) was at most 0.015 µg/mL and the MIC90 (N. meningitidis) was 0.03 µg/mL (≈ 0.0369 µM). For the same compound, the “strains with resistant clones / strains tested” value (S. pneumoniae; S. pneumoniae) was 5/8, the MIC (S. pneumoniae; read-out: Initial MIC, strain 24 Macrolide-R [erm(B)], parent) was 0.25 µg/mL (≈ 0.308 µM) and the MIC (S. pneumoniae; read-out: Initial MIC, strain 1076 Macrolide-R [erm(B)&mef(A)], parent) was 0.5 µg/mL (≈ 0.616 µM). It also gave an MIC (S. pneumoniae; read-out: Initial MIC, strain 1077 Macrolide-S, parent) of 0.004 µg/mL (≈ 0.00493 µM), an MIC (S. pneumoniae; read-out: Initial MIC, strain 1635 Macrolide-R [erm(A)], parent) of 0.004 µg/mL (≈ 0.00493 µM) and an MIC (S. pneumoniae; read-out: Initial MIC, strain 2686 Macrolide-R [L4 mutation], parent) of 0.06 µg/mL (≈ 0.0739 µM). For the same compound, the MIC (S. pneumoniae; read-out: Initial MIC, strain 3009 Macrolide-R [23SrRNA mutation], parent) was 0.016 µg/mL (≈ 0.0197 µM), the MIC (S. pneumoniae; read-out: Initial MIC, strain 3665 Macrolide-R [mef(A)], parent) was 0.125 µg/mL (≈ 0.154 µM) and the MIC (S. pneumoniae; read-out: Initial MIC, strain 7127 Macrolide-S [S20N in L4, A105V in L22], parent) was 0.008 µg/mL (≈ 0.00985 µM). It also gave an MIC (S. pneumoniae; read-out: MIC of parents of resistant clones, S. pneumoniae (CEM-101: 7 strains)) of 0.004 to 0.5 µg/mL, an MIC (S. pneumoniae; read-out: Parental MICs, S. pneumoniae, 8 strains with varying resistotypes) of 0.004 to 0.5 µg/mL (≈ 0.00493 to 0.616 µM) and an MIC (S. pneumoniae; read-out: Selected Resistance MIC, strain 24 Macrolide-R [erm(B)], after serial passages in the drug) of 32 µg/mL (≈ 39.4 µM). The MIC (S. pneumoniae; read-out: Selected Resistance MIC, strain 1076 Macrolide-R [erm(B)&mef(A)], after serial passages in the drug) was over 64 µg/mL, the MIC (S. pneumoniae; read-out: Selected Resistance MIC, strain 1077 Macrolide-S, after serial passages in the drug) was 0.25 µg/mL (≈ 0.308 µM) and the MIC (S. pneumoniae; read-out: Selected Resistance MIC, strain 1635 Macrolide-R [erm(A)], after serial passages in the drug) was 0.008 µg/mL (≈ 0.00985 µM). For the same compound, the MIC (S. pneumoniae; read-out: Selected Resistance MIC, strain 2686 Macrolide-R [L4 mutation], after serial passages in the drug) was 0.5 µg/mL (≈ 0.616 µM), the MIC (S. pneumoniae; read-out: Selected Resistance MIC, strain 3009 Macrolide-R [23SrRNA mutation], after serial passages in the drug) was 0.03 µg/mL (≈ 0.0369 µM) and the MIC (S. pneumoniae; read-out: Selected Resistance MIC, strain 3665 Macrolide-R [mef(A)], after serial passages in the drug) was 2 µg/mL (≈ 2.46 µM). For the same compound, the MIC (S. pneumoniae; read-out: Selected Resistance MIC, strain 7127 Macrolide-S [S20N in L4, A105V in L22], after serial passages in the drug) was 0.06 µg/mL (≈ 0.0739 µM), the “days until resistant clones (MIC increase)” value (S. pneumoniae; daily passages, min. 14, max. 50) was 14 to 38 days and the “Retest MIC after 10 Antibiotic-free Subcultures” value (S. pneumoniae; strain 24 Macrolide-R [erm(B)], clone selected with CEM-101) was 0.125 µg/mL. For the same compound, the “Retest MIC after 10 Antibiotic-free Subcultures” value (S. pneumoniae; strain 24 Macrolide-R [erm(B)], clone selected with TEL) was 16 µg/mL, the “Retest MIC after 10 Antibiotic-free Subcultures” value (S. pneumoniae; strain 1076 Macrolide-R [erm(B)&mef(A)], clone selected with CEM-101) was 32 µg/mL and the “Retest MIC after 10 Antibiotic-free Subcultures” value (S. pneumoniae; strain 1076 Macrolide-R [erm(B)&mef(A)], clone selected with TEL) was over 64 µg/mL. The “Retest MIC after 10 Antibiotic-free Subcultures” value (S. pneumoniae; strain 1077 Macrolide-S, clone selected with AZI) was 0.125 µg/mL, the “Retest MIC after 10 Antibiotic-free Subcultures” value (S. pneumoniae; strain 1077 Macrolide-S, clone selected with CEM-101) was 0.06a μg/ml and the “Retest MIC after 10 Antibiotic-free Subcultures” value (S. pneumoniae; strain 1077 Macrolide-S, clone selected with CLN) was 0.06 µg/mL. For the same compound, the “Retest MIC after 10 Antibiotic-free Subcultures” value (S. pneumoniae; strain 1077 Macrolide-S, clone selected with TEL) was 0.25 µg/mL, the “Retest MIC after 10 Antibiotic-free Subcultures” value (S. pneumoniae; strain 1635 Macrolide-R [erm(A)], clone selected with AZI) was 0.004 µg/mL and the “Retest MIC after 10 Antibiotic-free Subcultures” value (S. pneumoniae; strain 1635 Macrolide-R [erm(A)], clone selected with CEM-101) was 0.03 µg/mL. The “Retest MIC after 10 Antibiotic-free Subcultures” value (S. pneumoniae; strain 1635 Macrolide-R [erm(A)], clone selected with CLN) was 0.008 µg/mL, the “Retest MIC after 10 Antibiotic-free Subcultures” value (S. pneumoniae; strain 1635 Macrolide-R [erm(A)], clone selected with CLR) was 0.016 µg/mL and the “Retest MIC after 10 Antibiotic-free Subcultures” value (S. pneumoniae; strain 2686 Macrolide-R [L4 mutation], clone selected with CEM-101) was 0.25 µg/mL. The “Retest MIC after 10 Antibiotic-free Subcultures” value (S. pneumoniae; strain 2686 Macrolide-R [L4 mutation], clone selected with CLR) was 0.06 µg/mL, the “Retest MIC after 10 Antibiotic-free Subcultures” value (S. pneumoniae; strain 2686 Macrolide-R [L4 mutation], clone selected with TEL) was 0.5 µg/mL and the “Retest MIC after 10 Antibiotic-free Subcultures” value (S. pneumoniae; strain 3009 Macrolide-R [23SrRNA mutation], clone selected with CEM-101) was 0.06 µg/mL. For the same compound, the “Retest MIC after 10 Antibiotic-free Subcultures” value (S. pneumoniae; strain 3009 Macrolide-R [23SrRNA mutation], clone selected with CLR) was 0.06 µg/mL and the “Retest MIC after 10 Antibiotic-free Subcultures” value (S. pneumoniae; strain 3665 Macrolide-R [mef(A)], clone selected with CEM-101) was 0.25 µg/mL.
